Laboratory results published in patent publication US7671069B2, “Tricyclic, heteroaromatic compounds modulating CXCR4 and/ or CXCR7” (ChemoCentryx, Inc., priority 2006, dated 2010).

Molecular target: T1, CXCR4 (Homo sapiens, UniProt P61073)
T1 construct: endogenous in cells; host or cells: CEM-Nkr, CCRF-CEM (ATCC #CCL-119), Jurkat (ATCC #TIB-152), Molt-4 (ATCC# CRL-1582); IL-2 stimulated lymphocytes from human blood
Experiment: Inhibition of SDF-1 ligand binding or chemotaxis assay for CXCR4
Conditions: first (or only) activity listed in CXCR4/CXCR7; chemotaxis assay or binding assays
Experimental: CEM-Nkr, CCRF-CEM (ATCC #CCL-119), Jurkat (ATCC #TIB-152), Molt-4 (ATCC# CRL-1 582), cell lines, all endogenously expressing CXCR4, were used in compound screening and subsequent assays. These cell lines were cultured as a suspension in RPMI-1640 medium supplemented with 2 mM L-glutamine, 1.5 g/L sodium bicarbonate, 4.5 g/L glucose, 10 mM HEPES, 1 mM sodium pyruvate, and 10% FBS. Cells were grown under 5% CO2/95% air, 100% humidity at 37° C. and subcultured twice weekly at 1:6 (cells were cultured at a density range of 1×10^5 to 2×10^6 cells/mL) and harvested at 1×10^6 cells/mL.
Il-2 stimulated lymphocytes were isolated from fresh human blood using density separation and centrifigation. Briefly, whole blood is incubated with equal parts 3% dextran and allowed to separate for 45 minutes. After separation, the top layer is then layered on top of 15 mls of Ficoll (15 mls of Ficoll for every 30 mls of blood suspension) and centrifuged for 30 minutes at 400×g with no brake. The pellet at the bottom of the tube is then isolated and resuspended into PharmLyse RBC Lysis Buffer (BD Biosciences, San Jose, Calif.) after which the sample is again centrifuged for 10 minutes at 400×g with brake. The remaining cell pellet is resuspended as appropriate and stimulated with PHA for 2 days, followed by culturing in the presence of human IL-2 cytokine.
Cells were centrifuged and resuspended in assay buffer (20 mM HEPES pH 7.1, 140 mM NaCl, 1 mM CaCl2, 5 mM MgCl2, and with 0.2% bovine serum albumin) to a concentration of 4×10^6 cells/mL for cell lines. Binding assays were set up as follows. 0.15 mL of cells (6×10^5 cells/well) was added to the assay plates containing the compounds, giving a final concentration of ˜2-10 μM each compound for screening (or part of a dose response for compound IC50 determinations). Then 0.1 mL of ^125I labeled SDF-1α (obtained from Perkin Elmer Life Sciences, Boston, Mass.) diluted in assay buffer to a final concentration of ˜[…], yielding ˜30,000 cpm per well, was added, the plates sealed and incubated for approximately 3 hours at 4° C. on a shaker platform. Reactions were aspirated onto GF/B glass filters pre-soaked in 0.3% polyethyleneimine (PEI) solution, on a vacuum cell harvester (Packard Instruments; Meriden, Conn.). Scintillation fluid (40 μl; Microscint 20, Packard Instruments) was added to each well, the plates were sealed and radioactivity measured in a Topcount scintillation counter (Packard Instruments). Control wells containing either diluent only (for total counts) or excess SDF1a (1 μg/mL, for non-specific binding) were used to calculate the percent of total inhibition for compound. The computer program Prism from Graph Pad, Inc. (San Diego, Calif.) was used to calculate IC50 values. IC50 values are those concentrations required to reduce the binding of radiolabeled SDF-1α to the receptor by 50%. (For further descriptions of ligand binding and other functional assays, see Dairaghi, et al., J. Biol. Chem. 274:21569-21574 (1999), Penfold, et al., Proc. Natl. Acad. Sci. USA. 96:9839-9844 (1999), and Dairaghi, et al,. J. Biol. Chem. 272:28206-28209 (1997)).
Chemotaxis assays were performed using 5 μm pore polycarbonate, polyvinylpyrrolidone-coated filters in 96-well chemotaxis chambers (Neuroprobe; Gaithersburg, Md.) using chemotaxis buffer (Hank's balanced salt solution (HBSS) and 1% FBS). CXCR4 ligand (i.e., SDF1a, R&D Systems; Minneapolis, Minn.) are use to evaluate compound mediated inhibition of CXCR4 mediated migration. Other chemokines (i.e., TECK; R&D Systems; Minneapolis, Minn.) are used as specificity controls. The lower chamber was loaded with 29 μl of chemokine (i.e., 0.1 nM SDF1a); the top chamber contained 50,000 Jurkat cells or IL-2 lymphocytes in 20 μl. […]

T1 sequence (P61073 whole entry): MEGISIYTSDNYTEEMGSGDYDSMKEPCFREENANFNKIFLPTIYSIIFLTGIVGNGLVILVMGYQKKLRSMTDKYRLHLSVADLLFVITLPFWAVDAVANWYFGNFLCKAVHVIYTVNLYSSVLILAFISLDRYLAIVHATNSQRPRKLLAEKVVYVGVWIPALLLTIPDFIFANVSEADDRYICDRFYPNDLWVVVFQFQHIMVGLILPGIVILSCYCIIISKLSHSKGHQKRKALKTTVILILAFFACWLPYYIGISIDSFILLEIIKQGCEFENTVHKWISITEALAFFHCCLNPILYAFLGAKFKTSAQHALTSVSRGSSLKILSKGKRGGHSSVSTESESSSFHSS

Compound	IC50
Cc1ccc2oc(=O)c3cnn(CC(=O)NCCN(C)C4CCCCC4)c3c2c1 [Compound 1]	1000 to 10000 nM
Cc1ccc2c(c1)c1c(cnn1CC(=O)NCCN(C)C1CCCCC1)c(=O)n2C [Compound 8]	1000 to 10000 nM
COc1ccc2nc(OC)c3cnn(CC(=O)NCCN(C)C4CCCCC4)c3c2c1 [Compound 9]	< 1000 nM
CN(CCNC(=O)Cn1ncc2[nH]c(=O)c3ccccc3c21)C1CCCCC1 [Compound 10]	> 10000 nM
COc1nc2cnn(CC(=O)NCCN(C)C3CCCCC3)c2c2ccccc12 [Compound 11]	1000 to 10000 nM
COc1ccc2c(c1)c1c(cnn1CC(=O)NCCN(C)C1CCCCC1)c(=O)n2CC(=O)OC(C)(C)C [Compound 12]	1000 to 10000 nM
COc1ccc2c(c1)c1c(cnn1CC(=O)NCCN1CCCC3CCCCC31)c(=O)n2C (stereo not drawn) [Compound 13]	< 1000 nM
CN(CCCNC(=O)Cn1ncc2cc3ccccc3nc21)C1CCCCC1 [Compound 14]	1000 to 10000 nM
COc1ccc2c(c1)c1c(cnn1C(C)C(=O)NCCN(C)C1CCCCC1)c(=O)n2C (stereo not drawn) [Compound 15]	1000 to 10000 nM
COc1ccc2c(c1)c1c(cnn1CC(=O)NCCN1CCC3CCCCC3C1)c(=O)n2C (stereo not drawn) [Compound 16]	< 1000 nM
COc1ccc2c(c1)c1c(cnn1CC(=O)NCC1CCCN(C3CCCCC3)C1)c(=O)n2C (stereo not drawn) [Compound 17]	> 10000 nM
COc1ccc2c(c1)c1c(cnn1CC(=O)NCCN(C)C1CCOCC1)c(=O)n2C [Compound 18]	> 10000 nM
CN(CCNC(=O)Cn1ncc2c(=O)oc3ccccc3c21)C1CCCCC1 [Compound 21]	> 10000 nM
CN(CCNC(=O)Cn1ncc2c(=O)oc3ccc(Cl)cc3c21)C1CCCCC1 [Compound 22]	1000 to 10000 nM
COc1ccc2c(c1)c1c(cnn1C(=O)NCCN1CCC[C@@H]3CCCC[C@H]31)c(=O)n2C [Compound 28]	< 1000 nM
CCN(CCNC(=O)Cn1ncc2c(=O)n(C)c3ccc(OC)cc3c21)C1CCCCC1 [Compound 29]	1000 to 10000 nM
CCn1c(=O)c2cnn(CC(=O)NCCN(C)C3CCCCC3)c2c2cc(OC)ccc21 [Compound 33]	< 1000 nM
COc1ccc2c(c1)c1c(cnn1CC(=O)NCCN1CC[C@@H]3CCCC[C@H]3C1)c(=O)n2C [Compound 34]	< 1000 nM
COc1ccc2c(c1)c1c(cnn1CC(=O)NCCCN(C)C1CCCCC1)c(=O)n2C [Compound 35]	< 1000 nM
COc1nc2ccc(C)cc2c2c1cnn2CC(=O)NCCN(C)C1CCCCC1 [Compound 36]	1000 to 10000 nM
CCN(CCCNC(=O)Cn1ncc2c(=O)n(C)c3ccc(OC)cc3c21)C1CCCCC1 [Compound 37]	< 1000 nM
COc1ccc2c(c1)c1c(cnn1C(C)C(=O)NCCCN(C)C1CCCCC1)c(=O)n2C (stereo not drawn) [Compound 38]	1000 to 10000 nM
COc1ccc2c(c1)c1c(cnn1CC(=O)NCCN1CCCC(C)C1)c(=O)n2C (stereo not drawn) [Compound 40]	1000 to 10000 nM

Other lines, results leading:

IC50	Compound
1000 to 10000 nM	Cc1ccc2c(c1)-c1c(cnn1CC(=O)NCCN(C)C1CCCCC1)CO2 [Compound 2]
1000 to 10000 nM	Cc1ccc2c(c1)-c1nn(CC(=O)NCCN(C)C3CCCCC3)cc1CO2 [Compound 3]
> 10000 nM	CN(CCNC(=O)Cn1ncc2c1-c1cc(Cl)ccc1OC2)C1CCCCC1 [Compound 4]
1000 to 10000 nM	Cc1ccc2c(c1)-c1c(cnn1CC(=O)N1CCN(C3CCCCCC3)CC1)CO2 [Compound 5]
1000 to 10000 nM	CN(CCNC(=O)Cn1ncc2c1-c1ccccc1CC2)C1CCCCC1 [Compound 6]
1000 to 10000 nM	COc1ccc2c(c1)-c1c(cnn1CC(=O)NCCN(C1CCCCC1)C1CCCCC1)CO2 [Compound 7]
< 1000 nM	CN(CCNC(=O)Cn1ncc2c1-c1ccc(C#N)cc1OC2)C1CCCCC1 [Compound 19]
1000 to 10000 nM	COc1ccc2c(c1)-c1c(cnn1CC(=O)NCCN(C)C1CCCC1)CO2 [Compound 20]
> 10000 nM	Cc1cc2c(cc1Cl)-c1c(cnn1CC(=O)NCCN(C)C1CCCCC1)CO2 [Compound 23]
1000 to 10000 nM	COc1ccc2c(c1)-c1c(cnn1CC(=O)NCCN(C)C1CCCCCCC1)CO2 [Compound 25]
> 10000 nM	COc1ccc2c(c1)-c1c(cnn1CC(=O)NCCN(C)C1CCCCCC1)CO2 [Compound 26]
1000 to 10000 nM	COc1ccc2c(c1)-c1c(cnn1C(=O)NCCN1CCC[C@@H]3CCCC[C@@H]31)CO2 [Compound 27]
1000 to 10000 nM	COc1ccc2c(c1)-c1c(cnn1CC(=O)NCCN(C)C1CCCCC1)C(OCC(=O)OC(C)(C)C)N2 (stereo not drawn) [Compound 39]

Molecular target: T2, CCXCKR2 (CXCR7) (Homo sapiens, UniProt P25106)
T2 construct: expressed in transfected cells; host or cells: MDA-MB-435S transfected with pcDNA3.1(+)-hRDC1 (G418 selected) and/or MCF-7 (endogenous receptor)
Experiment: Displacement of 125I SDF-1 from CCXCKR2 (CXCR7) on MCF-7 and/or MDA-MB-435S cells
Type: binding
Conditions: second activity CXCR4/CXCR7
Experimental: The ability of the compounds to displace the labeled chemokine from the CCXCKR2 receptor sites at multiple concentrations was then determined with the screening process.
Reagents and Cells. […] SDF-1 was purchased from Perkin-Elmer Life Sciences, Inc. (Boston, Mass.). The MCF-7 (adenocarcinoma; mammary gland) cell line was obtained from the American Type Culture Collection (Manassas, Va.) or and was cultured in DMEM (Mediatech, Herudon, Va.) supplemented with 10% fetal bovine serum (FBS) (HyClone Logan, Utah) and bovine insulin (0.01 mg/mL) (Sigma, St. Louis, Mo.) at 37° C. in a humidified incubator at a 5% CO2/air mixture. CCXCKR2 transfected MDA-MB-435S were produced as described below. MDA-MB-435S human breast cancer line, was purchased from ATCC, and cultured in DMEM/10% FBS medium. The complete coding sequence of the gene encoding CCXCKR2 (a.k.a.CXCR7, hRDC1), was isolated from MCF-7 cells using μMACs mRNA isolation kit (Miltenyi Biotec, Auburn, Calif.). DNA contamination was removed by DNase digestion via RNeasy columns (Qiagen, Inc., Valencia, Calif.) and cDNA was generated using GeneAmp RNA PCR Core Kit (Applied Biosystems, Foster City, Clif.). PCR of cDNA samples was performed using Taq PCR Master Mix kit (Qiagen, Inc.) and hRDC1 primers harboring 5′ and 3′ Not I sites (hRDC1F 5′ […]-3′ (SEO ID NO:11), hRDC1R 5′-[…]-3′ (SEO ID NO: 12)) Not I digested PCR product was ligated into Not I digested pcDNA3.1 (+)(Invitrogen, Carlsbad, Calif.) and screened for orientation and sequence confirmed. Plasmid DNA was then isolated from overnight bacterial cultures by Maxiprep (Qiagen, Inc.). Plasmid DNA (10μg) was added to MDA-MB-435s cells and cells were electroporated (0.22 kV, 960uF) via Gene Pulser (Biorad laboratories, Hercules, Calif.). 48 hr post-electroporation, cells were transferred to selection medium (1000 ug/ml G418).
Binding Analysis. Target compounds were tested to determine their ability to bind with CCXCKR2 sites on MCF-7 and/or MDA-MB-435S cells. Efficiency-maximized radioligand binding using filtration protocols as described in Dairaghi D J, et al., HHV8-encoded vMIP-I selectively engages chemokine receptor CCR5. Agonist and antagonist profiles of viral chemokines, J. Biol. Chem. Jul. 30, 1999; 274(31): 21569-74 and Gosling J, et al., Cutting edge: identification of a novel chemokine receptor that binds dendritic cell-i and T cell-active chemokines including ELC, SLC, and TECK., J. Immunol. Mar. 15, 2000; 164(6):2851-6 was used.
In these assays, MCF-7 and/or MDA-MB-435S cells were interrogated with the target compounds and the ability of these compounds to displace ^125I radiolabeled SDF-1 was assessed using the protocol described in Dairaghi and Gosling. The target compounds were added to the plate to the indicated concentration and were then incubated with cells followed by the addition of radiolabeled chemokine (^125I SDF-1) for 3 hr at 4° C. in the following binding medium (25 mM HEPES, 140 mM NaCl, 1 mM CaCl2, 5 mM MgCl2 and 0.2% bovine serum albumin, adjusted to pH 7.1). All assays were then incubated for 3 hrs at 4° C. with gentle agitation. Following incubation in all binding assays, reactions were aspirated onto PEI-treated GF/B glass filters (Packard) using a cell harvester (Packard) and washed twice (25 mM HEPES, 500 mM NaCl, 1 mM CaCl2, 5 mM MgCl2, adjusted to pH 7.1). Scintillant (MicroScint 10, Packard) was added to the wells, and the filters were counted in a Packard Topcount scintillation counter. Data were analyzed and plotted using Prism (GraphPad Prism version 3.0a for Macintosh, GraphPad Software, www.graphpad.com).

T2 sequence (P25106 whole entry): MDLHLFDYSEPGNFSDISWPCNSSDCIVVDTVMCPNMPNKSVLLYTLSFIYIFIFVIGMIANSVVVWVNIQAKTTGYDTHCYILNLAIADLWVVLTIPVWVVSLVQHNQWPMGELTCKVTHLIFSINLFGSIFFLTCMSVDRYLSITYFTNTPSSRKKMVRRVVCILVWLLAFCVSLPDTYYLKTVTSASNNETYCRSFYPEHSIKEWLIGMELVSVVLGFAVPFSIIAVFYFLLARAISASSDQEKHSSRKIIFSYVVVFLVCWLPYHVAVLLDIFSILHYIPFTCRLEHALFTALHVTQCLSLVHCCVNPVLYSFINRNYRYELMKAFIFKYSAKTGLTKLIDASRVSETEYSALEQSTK

IC50	Compound
< 1000 nM	Cc1ccc2oc(=O)c3cnn(CC(=O)NCCN(C)C4CCCCC4)c3c2c1 [Compound 1]
< 1000 nM	Cc1ccc2c(c1)-c1c(cnn1CC(=O)NCCN(C)C1CCCCC1)CO2 [Compound 2]
< 1000 nM	COc1ccc2c(c1)c1c(cnn1CC(=O)NCCN1CCCC3CCCCC31)c(=O)n2C (stereo not drawn) [Compound 13]
